One compound from patent publication US20050106258A1, “Pharmacology and manufacturing method of Bombyx moriL related bioproduct” (priority 2003, published 2005) can be followed below.

Where a name gives a salt, the structure may show the parent alone.

What all share (type): in vivo, rats
The test system of assay [1] is cGMP. Description: cGMP content in rat plasma (125I-cGMP RIA). Conditions: 1.5 hours after administration, P < 0.001 vs control (2.59 ± 0.48). The procedure:
(§1) According to the aim of the experiment, IRA was performed to estimate cGMP content in plasma and cavernous boby of 50 male rats which were administrated by 2 dosages of […] product mainly consisting of bombyx moriL in our ladoratory. Change caused by […] product mainly consisting of bombyx moriL at 1.5 hours after administration was wholly observed. I. Rats: 50 healthy rats were randomly divided into 5 groups, every group is 10 rats 1. Product Mainly Consisting of Bombyx moriL Group: there were two dosage group 200 mg/kg, 400 mg/kg. 2. Viagra Group: two group, 6 mg/kg, 12 mg/kg. 3. Control Group: NS, 0.4 ML/rat. Medicine Dispensing: Viagra and Product Mainly Consisting of Bombyx moriL was dissolved by certain mount of NS. Administration Method: All Group was e.g. for One Time. Anticoagulant 50 u l EDTA was added into blood test tube.lml blood was taken in rat's veniplex orbita posterior. Test tubes was stood in ice-water mixture and were centrifugated 200 rpm for 10 minutes. […] Our laboratory used 125I-cGMP-RIA kit by Isotope Laboratory, detecting Method was double antiboby radioimmune method. The experiment sensitivity is 0.008 pmol/ml, most combination rate of detection is 82.7%,non […] combination rate is 5.0%.

Assay [2] has as its system cGMP. Description: cGMP content in rat cavernous body (125I-cGMP RIA). As to conditions: 1.5 hours after administration. Here is the method:
as §1, with “Time.” for “Time. Anticoagulant 50 u l EDTA was added into blood test tube.lml blood was taken in rat's veniplex orbita posterior. Test tubes was stood in ice-water mixture and were centrifugated 200 rpm for 10 minutes.”

Assay [3] has as its system 5′ Nucleotide Phosphodiesterase isoenzyme (isoenzyme V) in corpus cavernosum tissue. As to the kind of experiment: 5′ Nucleotide Phosphodiesterase isoenzyme bands in rat corpus cavernosum tissue after oral dosing (polyacrylamide gel electrophoresis, laser scanning). Conditions: P < 0.05 vs blank comparison (0.495 ± 0.328). The procedure:
Take 50 healthy male rats with body weight of 230±10.4 g, divide them into five groups at random, with 10 rats each group.
(1) The product mainly consisting of bombyx moriL test drug group: 200mg/kg and 400mg/kg two dose groups
(2) The positive comparison drug viagra group: 6 mg/kg and 12 mg/kg two dose groups
(3) The blank comparison group: normal saline 0.4 ml/per animal
Preparation of drug: After product mainly consisting of bombyx moriL and viagra are dissolved with quanitative normal saline, then use them.
Drug feeding way: Feed medicine to all groups of animal once.
Take corpus cavernosum 10 mg, put into the tissue lapping homogenate container, add 0.05M PH7.4 phosphoric acid buffering agent liquid of 0.2 ml homogenate into the ice bath, and lastly add to 10 ml to prepare homogenate liquid with concentration of 1 mg/n ml. Centrifuge by 20 min. at temperature 4° C., 3000 r/min, then take the supernatant liquid for use.
(1) Take 5′ Nucleotide Phosphodiesterase in the amount enough to dissolve phosphoric acid dieter bond by water, under the effecting of the bottom substance of 5′-[5-iodine indoxyl-(3)] thymidine acid ammonium salt, get iodine sub-indoxyl, it can be oxidized in air and generating violet 5.5′,by using -diuodoindigo principle to examine enzyme activity. […]

`CCCc1nn(C)c2c(=O)[nH]c(-c3cc(S(=O)(=O)N4CCN(C)CC4)ccc3OCC)nc12` [Viagra, Sildenafil citrate]: the results for the “cGMP content in plasma, X ± SD” value in the assay with cGMP [1] (Viagra 6 mg/kg) and with cGMP [1] (Viagra 12 mg/kg) were 4.53 ± 0.67 pmol/mL and 4.42 ± 0.97 pmol/mL, respectively. In addition, the “cGMP content in cavernous body, X ± SD” value in the assay on cGMP [2] (Viagra 6 mg/kg, P < 0.1 vs control (0.25 ± 0.05)) turned out to be 0.40 ± 0.26 pmol/mL; in the assay with cGMP [2] (Viagra 12 mg/kg, P < 0.001 vs control (0.25 ± 0.05)), 0.53 ± 0.12 pmol/mL. Moreover, the “isoenzyme band II area under peak, Peak Area X ± SD” value stood at 0.249 ± 0.126 in assay [3] (Viagra 6 mg/kg) and 0.198 ± 0.092 in assay [3] (Viagra 12 mg/kg).
